According to paper PMC8795197, “Safety and activity of WX-0593 (Iruplinalkib) in patients with ALK- or ROS1-rearranged advanced non-small cell lung cancer: a phase 1 dose-escalation and dose-expansion trial” (Signal Transduction and Targeted Therapy, 2022):
Entries after “also recorded” stand apart in the source; their conditions may differ.

Test system: advanced NSCLC patients with ALK or ROS1 rearrangement
Test: Phase 1 dose-expansion phase: antitumor activity (RECIST 1.1, investigators)
Type: in vivo, human
Conditions: for objective response rate / intracranial objective response rate: Total; for intracranial objective response rate: Baseline measurable CNS metastasis
Source text: Patients continued treatment until documented disease progression, unacceptable toxicity, withdrawal of consent, the start of a new anticancer treatment, death, loss of follow-up, or end of the study (whichever occurred first). Patients were permitted to continue treatment after progression if they were still experiencing clinical benefit, at the discretion of the investigator. Patients performed imaging evaluation at baseline, with computed tomography or magnetic resonance imaging of the chest, abdomen, pelvis, and brain. In the dose-escalation phase, the first efficacy evaluation was done after 3-week continuous administration of WX-0593 and every 6 weeks thereafter. […] AEs were assessed in all patients throughout this study and graded per the National Cancer Institute Common Terminology Criteria for Adverse Events version 4.03. In the dose-expansion phase, the primary endpoint was ORR assessed by investigators. Other key secondary endpoints included PFS, DCR, time to progression (TTP), DOR, intracranial response, and safety. Additionally, overall survival (OS) was assessed as a prespecified exploratory endpoint. ORR was defined as the proportion of patients who had best overall response, including CR or PR. PFS was calculated from the date of the first dose of WX-0593 to the date of documented disease progression or death (whichever occurred first). DCR was defined as the proportion of patients who had best overall response, including CR, PR, or SD, with a duration of at least 12 weeks. TTP was calculated from the date when the first dose of WX-0593 was given to first documented disease progression. […] OS was calculated from the date when the first dose of WX-0593 was administered to the date of death from any cause. Safety analysis was performed in the SS, which was comprised of all patients treated with one dose of WX-0593 and with safety data recorded. Efficacy analysis was performed in the FAS, which was defined as all patients treated with at least one dose of WX-0593. The PK analysis set included all patients treated with at least one dose of WX-0593 and with at least one evaluable PK sample. […] Descriptive statistics were carried out to summarize patients’ baseline characteristics and safety. […] All time-to-event data (PFS, TTP, DOR, and OS) and their corresponding 95% CIs were estimated by Kaplan–Meier methods. PK parameter analyses were done with Phoenix WinNonlin version 8.0. All other statistical analyses were conducted using SAS version 9.4.

[1] = ROS1-positive patients, 120 mg (n=3)
[2] = ROS1-positive patients, 180 mg (n=6)
[3] = ROS1-positive patients, total (n=9)
[4] = baseline measurable or non-measurable brain metastasis
[5] = baseline measurable or non-measurable brain metastasis (n = 58)
[6] = both crizotinib and other ALK TKIs
[7] = crizotinib as the only ALK TKI treatment

COc1cc(N2CCC3(CCN(C)CC3)CC2)ccc1Nc1ncc(Cl)c(Nc2ccccc2P(C)(C)=O)n1 [WX-0593]
DOR, median (95% CI) (ROS1-positive patients, 120 mg): NR (NR, NR)
PFS, median (95% CI) (ROS1-positive patients, 120 mg): 2.76 (1.35, 2.76) mo
TTP, median (95% CI) (ROS1-positive patients, 120 mg): 2.76 (1.35, 2.76) mo
DCR (95% CI) [1]: 66.7% (9.4%, 99.2%)
ORR (95% CI) [1]: 0 (0%, 70.8%)
PFS, number of events (%) [1]: 3 (100%)
TTP (mo), n (%) [1]: 3 (100%)
DOR, median (95% CI) (ROS1-positive patients, 180 mg): NR (NR, NR)
PFS, median (95% CI) (ROS1-positive patients, 180 mg): NR (1.35, NR)
TTP, median (95% CI) (ROS1-positive patients, 180 mg): NR (1.35, NR)
DCR (95% CI) [2]: 66.7% (22.3%, 95.7%)
ORR (95% CI) [2]: 66.7% (22.3%, 95.7%)
PFS, number of events (%) [2]: 2 (33.3%)
TTP (mo), n (%) [2]: 2 (33.3%)
DOR, median (95% CI) (ROS1-positive patients, total): NR (NR, NR)
PFS, median (95% CI) (ROS1-positive patients, total): 2.76 (1.35, NR) mo
TTP, median (95% CI) (ROS1-positive patients, total): 2.76 (1.35, NR) mo
ORR (95% CI) [3]: 44.4%
PFS, number of events (%) [3]: 5 (55.6%)
TTP (mo), n (%) [3]: 5 (55.6%)
ORR (ROS1-rearranged, crizotinib naive): 80.0%
median PFS (ROS1 rearrangement, crizotinib-naive (n = 5)): not reached
objective response rate (ALK-rearranged patients): 58.2% (53/91, 47.4-68.5%)
objective response rate (ALK-rearranged patients, ALK TKI naive): 76.3% (29/38, 59.8-88.6%)
objective response rate (ALK-rearranged patients, ALK TKI naive, chemotherapy naïve): 85.0% (17/20, 62.1-96.8%)
objective response rate (ALK-rearranged patients, ALK TKI naive, received chemotherapy before): 66.7% (12/18, 41.0-86.7%)
objective response rate (ALK-rearranged patients, Crizotinib and other ALK TKIs): 40.0% (2/5, 5.3-85.3%)
objective response rate (ALK-rearranged patients, Crizotinib only): 45.7% (21/46, 30.9-61.0%)
objective response rate (ALK-rearranged patients, Other ALK TKIs): 50.0% (1/2, 1.3-98.7%)
objective response rate (Baseline CNS metastasis): 22.4% (13/58, 12.5-35.3%)
objective response rate (Baseline CNS metastasis, ALK TKI naive): 25.0% (5/20, 8.7-49.1%)
objective response rate (Baseline CNS metastasis, Crizotinib only): 21.2% (7/33, 9.0-38.9%)
objective response rate (Baseline CNS metastasis, Radiotherapy before): 10.5% (2/19, 1.3-33.1%)
objective response rate (Baseline CNS metastasis, Radiotherapy naïve): 28.2% (11/39, 15.0-44.9%)
intracranial objective response rate: 46.7% (7/15, 21.3-73.4%)
intracranial objective response rate (ALK TKI naive): 50.0% (2/4, 6.8-93.2%)
intracranial objective response rate (Crizotinib only): 50.0% (5/10, 18.7-81.3%)
intracranial objective response rate (Radiotherapy before): 28.6% (2/7, 3.7-71.0%)
objective response rate (Prior ALK TKI treatment: Crizotinib and other ALK TKI): 40.0% (2/5, 5.3-85.3%)
objective response rate (Prior ALK TKI treatment: Crizotinib only): 42.0% (21/50, 28.2-56.8%)
objective response rate (ROS1-rearranged patients): 44.4% (4/9, 13.7-78.8%)
objective response rate (ROS1-rearranged patients, Crizotinib naive): 80.0% (4/5, 28.4-99.5%)
objective response rate (ROS1-rearranged patients, Received Crizotinib before): 0 (0/4, 0-60.2%)
objective response rate (dose expansion phase, Prior ALK TKI treatment: ALK TKI naive): 76.2% (32/42, 60.5-87.9%)
DOR, median (95% CI) (all patients, 120 mg): NR (5.52, NR)
PFS, median (95% CI) (all patients, 120 mg): NR (6.83, NR)
TTP, median (95% CI) (all patients, 120 mg): NR (6.87, NR)
DCR (95% CI) (all patients, 120 mg (n=50)): 82.0% (68.6%, 91.4%)
PFS, number of events (%) (all patients, 120 mg (n=50)): 15 (30.0%)
DOR, median (95% CI) (all patients, 180 mg): NR (5.49, NR)
PFS, median (95% CI) (all patients, 180 mg): NR (NR, NR)
TTP, median (95% CI) (all patients, 180 mg): NR (NR, NR)
DCR (95% CI) (all patients, 180 mg (n=49)): 85.7% (72.8%, 94.1%)
PFS, number of events (%) (all patients, 180 mg (n=49)): 10 (20.4%)
DOR, median (95% CI) (all patients, total): not reached (NR) (95% CI 5.52 months to NR); also recorded: NR (5.65, NR)
PFS, median (95% CI) (all patients, total): not reached (95% CI 6.93 months to NR); also recorded: NR (6.93, NR)
TTP, median (95% CI) (all patients, total): NR (6.93, NR)
intracranial ORR (baseline measurable CNS metastasis, radiotherapy before): 28.6%
intracranial ORR (baseline measurable CNS metastasis, radiotherapy naive): 62.5%
intracranial ORR (baseline measurable brain metastasis): 46.7%
intracranial ORR (baseline measurable brain metastasis, ALK TKI naive): 50%
intracranial ORR (baseline measurable brain metastasis, crizotinib before): 50%
intracranial ORR [4]: 22.4%
median PFS [4]: not reached (95% CI 6.90 months to NR)
patients with intracranial PR [5]: 7
patients with intracranial complete remission (CR) [5]: 6
DCR [6]: 100%
ORR [6]: 40.0%
median PFS [6]: not reached
DCR [7]: 76.0%
ORR [7]: 42.0%
median PFS (previously only crizotinib): 6.83 months
